Measurements from publication PMC6379637, “Consecutive influenza surveillance of neuraminidase mutations and neuraminidase inhibitor resistance in Japan” (Influenza and Other Respiratory Viruses, 2019).
Values joined by “and” are separate entries in the source; they are usually repeats but may differ in a detail not shown here. Equal entries are not always repeated.

Tests used:
[1] = biological target: influenza B neuraminidase; assay type: biochemical, influenza B virus; conditions: read-out: IC50
[2] = biological target: A/H1N1pdm09 neuraminidase; assay type: biochemical, influenza A/H1N1pdm09 virus; conditions: read-out: IC50

Row | SMILES | IC50 [1] [nM] | IC50 [2]
1 | CCOC(=O)C1=C[C@@H](OC(CC)CC)[C@H](NC(C)=O)[C@@H](N)C1 [Oseltamivir, oseltamivir phosphate] | 14 | –
2 | CCC(CC)[C@H](NC(C)=O)[C@@H]1[C@H](O)[C@@H](C(=O)O)C[C@H]1N=C(N)N [Peramivir, peramivir hydrate] | – | 0.45 nM and 0.65 nM and 0.26 nM
